From ChEMBL document CHEMBL4428037 (J Med Chem, 2016) come the findings set out here.

Test [1] deals with A549. Description: Induction of apoptosis in human A549 cells assessed as late apoptotic cells level at 20 nM incubated for 24 hrs by Annexin V-FITC/PI staining based FACS flow cytometry (reference value: 2.15%). Format: functional.
Test [2] concerns HepG2. Description: Growth inhibition of human HepG2 cells incubated for 72 hrs by MTT assay. It counts as functional, cell-based. The conditions noted are these: HepG2, 72 h.
For test [3], the system named is A549. Nature of the test: Inhibition of colony formation in human A549 cells incubated for 9 days by crystal violet staining based assay. Format: functional, cell-based.
The subject of test [4] is A549. Nature of the test: Induction of apoptosis in human A549 cells assessed as necrotic cells level at 20 nM incubated for 24 hrs by Annexin V-FITC/PI staining based FACS flow cytometry (reference value: 0.37%). It counts as functional.
The test system of test [5] is A549. Nature of the test: Induction of apoptosis in human A549 cells assessed as induction of cytoplasmic membrane blebbing at 40 nM incubated for 24 hrs microscopy. It counts as functional, cell-based.
In test [6] the test system is HeLa. Description: Growth inhibition of human HeLa cells incubated for 72 hrs by MTT assay. Format: functional, cell-based.
In test [7] the test system is Non-small cell lung cancer cell line. Nature of the test: Antitumor activity against human NSCLC xenografted in Balb/c-nu mouse assessed as induction of delay in tumor volume increase at 50 mg/kg, ip dosed every day for 21 consecutive days and measured every 3 days. It counts as functional, organism-based.
For test [8], the system named is A549. Nature of the test: Induction of apoptosis in human A549 cells assessed as early apoptotic cells level at 40 nM incubated for 24 hrs by Annexin V-FITC/PI staining based FACS flow cytometry (reference value: 0.65%). Format: functional.
The subject of test [9] is PC-3. Nature of the test: Growth inhibition of human PC3 cells incubated for 72 hrs by MTT assay. Format: functional, cell-based. The conditions noted are these: PC-3, 72 h.
Test [10] has as its system MCF7. Nature of the test: cells. The conditions noted are these: Homo sapiens, MCF7, 72 h.
Test [11] deals with Non-small cell lung cancer cell line. Nature of the test: Antitumor activity against human NSCLC xenografted in Balb/c-nu mouse assessed as inhibition of tumor growth at 50 mg/kg, ip dosed every day for 21 consecutive days and measured every 3 days. As to conditions: 72 h, read-out: TGI. It counts as functional.
For test [12], the system named is HUVEC. Description: Inhibition of capillary tube formation in HUVEC assessed as reduction in tube-like structures formation at 40 nM incubated for 8 hrs by fluorescence microscopy based 3D-matrigel assay. The conditions noted are these: Homo sapiens. It counts as functional.
In test [13] the test system is A549. Nature of the test: Induction of apoptosis in human A549 cells assessed as live cells level at 40 nM incubated for 24 hrs by Annexin V-FITC/PI staining based FACS flow cytometry (reference value: 96.83%). Format: functional.

The structures appear in SMILES notation. Active and inactive are the calls of the source. The calls are words filed in the database; no cut-off is given here.

As to `CCOc1cccc(Nc2nn(C)c3c2Cc2cc(OCC)c(OCC(N)=O)cc2-3)c1`, the Activity in test [1] came out at 4.57%; in test [4] it was 0.84%; in [8] it was 9.06%; in test [13], 84.24%. The IC50 in test [2] came to 26 nM; in [6], 7.4 nM; in test [9], 19 nM; in test [10] it was 32.3 nM. In addition, the inhibition result in test [3] is “Dose-dependent effect”. For the same compound, the result in test [5] and in test [7] was Active. Besides, the inhibition in vivo at 50 mg/kg in test [11] is 59.1%. In test [12], the inhibition at 0.04 µM came out at 69%.
